In brackets after ≈: the same amount, converted by molar mass. Where two headings read alike, the source gives them in different places. Where a SMILES comes first, the peptide text is derived from it. [ ]: non-standard residue; d: D form. ξ: configuration not given here. Oic = O=C(O)[C@@H]1C[C@@H]2CCCC[C@@H]2N1; Tic = O=C(O)[C@@H]1Cc2ccccc2CN1; ξTic = O=C(O)C1Cc2ccccc2CN1; ξOic = O=C(O)C1CC2CCCCC2N1; Ahx = NCCCCCC(=O)O; GABA = NCCCC(=O)O
Key:
[1] = test system: Salmonella typhimurium (ATCC 13311); conditions: for p(MIC) Salmonella typhimurium: -log(MIC)
[2] = test system: Staphylococcus aureus Methicillin/Gentamicin/Tetracycline Resistant (ATCC 33592); conditions: for p(MIC) Staphylococcus aureus ME/GM/TC resistant: -log(MIC); for MIC Staphylococcus aureus ME/GM/TC resistant: Minimal Inhibitory Concentration, tested at 100-0.1 in 1% DMSO; for Minimum Inhibitory Concentration Staphylococcus aureus ME/GM/TC resistant: in vitro MIC, tested at 100, 30, 10, 3, 1, 0.3 and 0.1 μM in 1% DMSO; for Actual Bioactivity: p(MIC) used in Staphylococcus aureus QSAR model
[3] = test system: Mycobacterium ranae (ATCC 110)
[4] = test system: Bacillus subtillis (ATCC 43223); conditions: for p(MIC) Bacillus Subtillis: -log(MIC)
[5] = test system: red blood cells

| SMILES | p(MIC) Salmonella typhimurium [1] | MIC Salmonella typhimurium ([1]; ATCC 13311) [µM] | p(MIC) Staphylococcus aureus ME/GM/TC resistant [2] | MIC Staphylococcus aureus ME/GM/TC resistant [2] [µM] | Minimum Inhibitory Concentration Staphylococcus aureus ME/GM/TC resistant [2] [µM] | Actual Bioactivity [2] | Actual Bioactivity [3] | MIC Mycobacterium ranae ([3]; ATCC 110) [µM] | Minimum Inhibitory Concentration Mycobacterium ranae ([3]; ATCC 110) [µM] | p(MIC) Bacillus Subtillis [4] | MIC Bacillus Subtillis ([4]; ATCC 43223) [µM] | % hemolysis 100/25 μM (first value) [5] [%/] | % hemolysis 100/25 μM (second value) [5] [%] | SA Activity ([2]; Staphylococcus aureus (SA), Table 30) | MR Activity [3] [µM] | Minimum Inhibitory Concentration Mycobacterium ranae [3] [µM] | Minimum Inhibitory Concentration Salmonella typhimurium ([1]; ATCC 13311) [µM] | selectivity for Mycobacterium ranae over Salmonella typhimurium ([3]; in vitro) [fold] | Minimum Inhibitory Concentration Bacillus subtillis ([4]; ATCC 43223) [µM] |
| --- | --- | --- | --- | --- | --- | --- | --- | --- | --- | --- | --- | --- | --- | --- | --- | --- | --- | --- | --- |
| CC(=O)NCCCCCC(=O)N[C@@H](Cc1ccccc1)C(=O)N1Cc2ccccc2C[C@H]1C(=O)N1[C@H](C(=O)NCCCCCC(=O)N[C@@H](CCCCN)C(=O)N2Cc3ccccc3C[C@H]2C(=O)N2[C@H](C(=O)NCCCCCC(=O)N[C@@H](Cc3ccccc3)C(=O)N3Cc4ccccc4C[C@H]3C(=O)N3[C@H](C(=O)NCCCCCC(=O)N[C@@H](CCCCN)C(=O)N4Cc5ccccc5C[C@H]4C(=O)N[C@@H](CCCCN)C(=O)N[C@@H](CCCCN)C(=O)N[C@@H](CCCCN)C(=O)N[C@@H](CCCCN)C(N)=O)C[C@@H]4CCCC[C@@H]43)C[C@@H]3CCCC[C@@H]32)C[C@@H]2CCCC[C@@H]21 [FKAB-1Gd2, Ac-Ahx-F-Tic-Oic-Ahx-K-Tic-Oic-Ahx-F-Tic-Oic-Ahx-K-Tic-KKKK-CONH2] (Ac-[Ahx]F[Tic][Oic][Ahx]K[Tic][Oic][Ahx]F[Tic][Oic][Ahx]K[Tic]KKKK-NH2) | 5.00 | 10 (≈ 26.7 µg/mL) | 5.00 | 10.00 (≈ 26.7 µg/mL) | 10 | 5.000 | 5.520 | 3.00 (≈ 8 µg/mL) | 3 | 6.00 | 1.00 (≈ 2.67 µg/mL) | 44.7 | 26.6 |  |  |  |  |  |  |
| CC(=O)N[C@@H](Cc1ccccc1)C(=O)N1Cc2ccccc2C[C@H]1C(=O)N1[C@H](C(=O)N[C@@H](CCCCN)C(=O)N2Cc3ccccc3C[C@H]2C(=O)N2[C@H](C(=O)N[C@@H](Cc3ccccc3)C(=O)N3Cc4ccccc4C[C@H]3C(=O)N3[C@H](C(=O)N[C@@H](CCCCN)C(=O)N4Cc5ccccc5C[C@H]4C(=O)N[C@@H](CCCCN)C(=O)N[C@@H](CCCCN)C(=O)N[C@@H](CCCCN)C(=O)N[C@@H](CCCCN)C(=O)N[C@@H](CCCCN)C(=O)N[C@@H](CCCCN)C(N)=O)C[C@@H]4CCCC[C@@H]43)C[C@@H]3CCCC[C@@H]32)C[C@@H]2CCCC[C@@H]21 [FKAB-1Gc1, Ac-F-Tic-Oic-K-Tic-Oic-F-Tic-Oic-K-Tic-KKKKKK-CONH2] (Ac-F[Tic][Oic]K[Tic][Oic]F[Tic][Oic]K[Tic]KKKKKK-NH2) | 5.00 | 10 (≈ 24.7 µg/mL) | 5.52 | 3.00 (≈ 7.41 µg/mL) | 3 | 5.520 | 5.520 | 3.00 (≈ 7.41 µg/mL) |  | 6.00 | 1.00 (≈ 2.47 µg/mL) | 41.3 | 33.5 | 3 | 3 | 3 |  |  |  |
| NCCCC[C@H](NC(=O)[C@H](CCCCN)NC(=O)[C@H](CCCCN)NC(=O)[C@H](CCCCN)NC(=O)[C@@H]1Cc2ccccc2CN1C(=O)[C@H](CCCCN)NC(=O)CNC(=O)[C@@H]1C[C@@H]2CCCC[C@@H]2N1C(=O)[C@@H]1Cc2ccccc2CN1C(=O)[C@H](Cc1ccccc1)NC(=O)CNC(=O)[C@@H]1C[C@@H]2CCCC[C@@H]2N1C(=O)[C@@H]1Cc2ccccc2CN1C(=O)[C@H](CCCCN)NC(=O)CNC(=O)[C@@H]1C[C@@H]2CCCC[C@@H]2N1C(=O)[C@@H]1Cc2ccccc2CN1C(=O)[C@H](Cc1ccccc1)NC(=O)CN)C(N)=O [FKAB-1Ga, NH2--GF-Tic-Oic-GK-Tic-Oic-GF-Tic-Oic-GK-Tic-KKKK-CONH2] (H-GF[Tic][Oic]GK[Tic][Oic]GF[Tic][Oic]GK[Tic]KKKK-NH2) | 5.52 | 3 (≈ 7.2 µg/mL) | 5.00 |  | 10 | 5.000 | 5.000 | 10.00 (≈ 24 µg/mL) | 10 | 6.00 | 1.00 (≈ 2.4 µg/mL) | 33.4 | 14.3 |  |  |  |  |  |  |
| CC(=O)NCC(=O)N[C@@H](Cc1ccccc1)C(=O)NCC(=O)N1C(C(=O)NCC(=O)N[C@@H](CCCCN)C(=O)NCC(=O)N2C(C(=O)NCC(=O)N[C@@H](Cc3ccccc3)C(=O)NCC(=O)N3C(C(=O)NCC(=O)N[C@@H](CCCCN)C(=O)NCC(=O)N[C@@H](CCCCN)C(=O)N[C@@H](CCCCN)C(=O)N[C@@H](CCCCN)C(=O)N[C@@H](CCCCN)C(N)=O)CC4CCCCC43)CC3CCCCC32)CC2CCCCC21 (stereo partly shown) [FKAB-1Gf1, Ac-GF-G-Oic-GK-G-Oic-GF-G-Oic-GK-G-KKKK-CONH2] (Ac-GFG[ξOic]GKG[ξOic]GFG[ξOic]GKGKKKK-NH2) |  |  |  |  |  |  |  | 100.00 (≈ 203 µg/mL) |  |  | 30.00 (≈ 61 µg/mL) | 3.30 | 3.3 |  |  |  |  |  |  |
| CC(=O)NCC(=O)N[C@@H](Cc1ccccc1)C(=O)N1Cc2ccccc2CC1C(=O)NCC(=O)NCC(=O)N[C@@H](CCCCN)C(=O)N1Cc2ccccc2CC1C(=O)NCC(=O)NCC(=O)N[C@@H](Cc1ccccc1)C(=O)N1Cc2ccccc2CC1C(=O)NCC(=O)NCC(=O)N[C@@H](CCCCN)C(=O)N1Cc2ccccc2CC1C(=O)N[C@@H](CCCCN)C(=O)N[C@@H](CCCCN)C(=O)N[C@@H](CCCCN)C(=O)N[C@@H](CCCCN)C(N)=O (stereo partly shown) [FKAB-1Gg1, Ac-GF-Tic-G-GK-Tic-G-GF-Tic-G-GK-Tic-KKKK-CONH2] (Ac-GF[ξTic]GGK[ξTic]GGF[ξTic]GGK[ξTic]KKKK-NH2) |  | 100 (≈ 216 µg/mL) |  |  |  |  |  | 30.00 (≈ 64.8 µg/mL) |  |  | 10.00 (≈ 21.6 µg/mL) | 5.70 | 3.80 |  |  |  |  |  |  |
| CC(=O)NCCCC(=O)N[C@@H](Cc1ccccc1)C(=O)N1Cc2ccccc2C[C@H]1C(=O)N1[C@H](C(=O)NCCCC(=O)N[C@@H](CCCCN)C(=O)N2Cc3ccccc3C[C@H]2C(=O)N2[C@H](C(=O)NCCCC(=O)N[C@@H](Cc3ccccc3)C(=O)N3Cc4ccccc4C[C@H]3C(=O)N3[C@H](C(=O)NCCCC(=O)N[C@@H](CCCCN)C(=O)N4Cc5ccccc5C[C@H]4C(=O)N[C@@H](CCCCN)C(=O)N[C@@H](CCCCN)C(=O)N[C@@H](CCCCN)C(=O)N[C@@H](CCCCN)C(=O)N[C@@H](CCCCN)C(N)=O)C[C@@H]4CCCC[C@@H]43)C[C@@H]3CCCC[C@@H]32)C[C@@H]2CCCC[C@@H]21 [FKAB-1Gd3, Ac-Gaba-F-Tic-Oic-Gaba-K-Tic-Oic-Gaba-F-Tic-Oic-Gaba-K-Tic-KKKKK-CONH2] (Ac-[GABA]F[Tic][Oic][GABA]K[Tic][Oic][GABA]F[Tic][Oic][GABA]K[Tic]KKKKK-NH2) |  | 10 (≈ 26.8 µg/mL) | 4.52 |  |  | 4.520 | 5.520 | 3.00 (≈ 8.04 µg/mL) |  |  | 1.00 (≈ 2.68 µg/mL) | 29.7 | 10.5 |  |  | 3 | 10 | 3 | 1 |

— US20120197004A1, “NOVEL ANTI-MICROBIAL PEPTIDOMIMETIC COMPOUNDS AND METHODS TO CALCULATE ANTI-MICROBIAL ACTIVITY” (priority 2006, published 2012)
